Laboratory results published in patent EP4342530A1, “SORTILIN MODULATORS” (Insusense ApS, priority 2022, dated 2024).

How the values were obtained:
h-Sortilin = target: T1, h-Sortilin (Homo sapiens, UniProt Q99523); assay: Neurotensin scintillation proximity assay (displacement of [3H]-neurotensin binding); conditions: 150 nM 6his-Sortilin, 5 nM [3H]-Neurotensin; average of at least 2 determinations; read-out: IC50 [3H]Neurotensin SPA
T1 sequence (Q99523 78-831): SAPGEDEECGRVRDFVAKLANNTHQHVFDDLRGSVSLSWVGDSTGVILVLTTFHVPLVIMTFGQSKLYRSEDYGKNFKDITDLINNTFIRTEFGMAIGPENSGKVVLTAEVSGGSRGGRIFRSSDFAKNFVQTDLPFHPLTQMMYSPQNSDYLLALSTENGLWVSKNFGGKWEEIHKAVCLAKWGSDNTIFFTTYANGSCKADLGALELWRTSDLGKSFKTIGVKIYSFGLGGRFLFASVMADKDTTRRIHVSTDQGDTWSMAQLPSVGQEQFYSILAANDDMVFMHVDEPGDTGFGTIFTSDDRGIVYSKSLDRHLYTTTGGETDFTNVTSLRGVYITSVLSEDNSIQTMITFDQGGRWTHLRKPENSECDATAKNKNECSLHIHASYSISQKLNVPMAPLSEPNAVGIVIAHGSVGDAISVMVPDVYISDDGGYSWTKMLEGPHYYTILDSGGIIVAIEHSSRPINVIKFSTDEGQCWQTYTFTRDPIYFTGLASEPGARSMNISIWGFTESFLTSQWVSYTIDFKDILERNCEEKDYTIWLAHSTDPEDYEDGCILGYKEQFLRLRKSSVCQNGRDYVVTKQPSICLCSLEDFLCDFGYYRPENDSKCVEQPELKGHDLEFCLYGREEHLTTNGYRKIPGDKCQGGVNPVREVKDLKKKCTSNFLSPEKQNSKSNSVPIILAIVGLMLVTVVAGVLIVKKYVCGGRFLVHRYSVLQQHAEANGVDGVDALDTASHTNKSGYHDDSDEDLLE
Procedure: The exemplified compounds of the invention were tested in a Neurotensin (NTS) scintillation proximity assay (SPA). NTS, which is a 13 amino acid neuropeptide, is a sortilin ligand. The IC50 is a measure of the amount of the compound required to inhibit the binding of NTS to sortilin by 50%. The skilled person will recognise that the lower the IC50 value, the less of the compound needed to achieve the desired effect, and as a result, the chances of undesirable off-target effects are reduced.
Compound affinity was determined by measuring the displacement of [3H]-neurotensin binding to h-Sortilin in SPA format. Total volume of 40 µl in 50 mM HEPES pH 7.4 assay buffer containing 100 mM NaCl, 2.0 mM CaCl2, 0.1% BSA and 0.1% Tween-20. Compound pre-incubation for 30 minutes at room temperature with 150 nM of 6his-Sortilin before 5 nM [3H]-Neurotensin and Ni chelate imaging beads (Perkin Elmer) were added, after 6 hours the plate was read on a ViewLux with 360 s exposure time. Dose-response evaluation of compounds was performed with 8 concentrations of drugs (covering 3 decades). IC50 values were calculated by nonlinear regression using the sigmoid concentration-response (variable slope) using CDD Vault software. All values reported are average of at least 2 determinations.

Sortilin [1] = target: T2, Sortilin (Homo sapiens, UniProt Q99523); assay: Creoptix (GCI) binding kinetics, human Sortilin; conditions: Species Human, screened at 1 µM, 25 degrees Celsius
T2 construct: purchased Bio-Techne Ltd 3154-ST-050
T2 sequence (Q99523 78-755 limits assumed): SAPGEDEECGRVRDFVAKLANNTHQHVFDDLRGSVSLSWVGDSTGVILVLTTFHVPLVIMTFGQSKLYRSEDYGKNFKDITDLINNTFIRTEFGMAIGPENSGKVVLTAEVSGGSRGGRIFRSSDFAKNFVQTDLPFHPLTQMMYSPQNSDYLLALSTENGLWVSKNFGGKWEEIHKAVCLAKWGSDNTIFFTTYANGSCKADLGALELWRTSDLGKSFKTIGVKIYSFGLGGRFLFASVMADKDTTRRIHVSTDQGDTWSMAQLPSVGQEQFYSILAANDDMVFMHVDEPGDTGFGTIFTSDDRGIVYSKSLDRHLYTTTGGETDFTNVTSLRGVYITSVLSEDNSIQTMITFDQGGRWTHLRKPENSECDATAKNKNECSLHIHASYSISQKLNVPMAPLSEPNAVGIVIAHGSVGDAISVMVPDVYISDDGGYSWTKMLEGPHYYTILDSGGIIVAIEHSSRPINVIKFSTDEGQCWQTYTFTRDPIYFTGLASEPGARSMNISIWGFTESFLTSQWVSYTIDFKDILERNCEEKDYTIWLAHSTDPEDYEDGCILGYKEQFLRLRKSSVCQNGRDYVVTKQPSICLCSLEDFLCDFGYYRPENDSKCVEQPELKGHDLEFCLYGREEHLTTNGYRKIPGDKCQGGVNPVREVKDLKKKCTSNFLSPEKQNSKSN
Procedure: (§1) Creoptix (GCI) method - using SEQ ID NO.4 (Murine sortillin)
(§2) A protein, bound to a surface, is bathed in a solution containing potential ligands giving rise to binding kinetics to generate Kon and Koff rates, as well as a Kd.
(§3) All buffers described were filtered using a 0.2µm filter (Product number: 10300461, Nalgene) and degassed for 15 minutes prior to use.
(§4) A flow cell temperature of 25 degrees Celsius was used throughout the experiment.
(§5) A 4PCH chip was conditioned across all flow cells using 0.2 X concentration running buffer (running buffer composition: 1XHBS-N, pH 7.4, 3.4 mM EDTA, 1% DMSO) using pre-set conditioning wizard (WAVE control software) injecting: 0.1 M borate, 1 M NaCl (pH 9) followed by three start-up injections of 0.2 X running buffer.
(§6) A buffer exchange was performed and 1x running buffer (1XHBS-N, pH 7.4, 3.4 mM EDTA, 1% DMSO) used during the immobilisation procedure: An initial injection of EDC/NHS (mixed in 1:1 ratio) was performed across all 4-flow cells to activate the surface for amine coupling of ligands.
(§7) Recombinant Sortilin aliquots were thawed quickly by hand and centrifuged at 13,300 rpm for 10 minutes. A 10 µg/ml protein solution was then made in pH 5.0 acetate and injected once for 20 minutes over flow-cells 2, 3 and 4 for human, human (flow cells 2 & 3), and mouse Sortilin respectively followed by a 60 second dissociation period.
(§8) A final 7-minute passivation injection of 50 mM tris was used across all flow cells.
(§9) A flow rate of 10 µl/min was used for all conditioning and immobilisation cycles.
(§10) Compounds were screened at 1 µM using the in-built 'intermediate binders' settings: 100 ul/min, 45 s baseline, 25 s association, 300 s dissociation, with blanks every 5th sample and a DMSO correction (1.5 % DMSO at the start and end of the experiment as well as every 20 cycles. An acquisition rate of 10 Hz was used throughout the experiment.
(§11) Compounds were screened at a final assay concentration of 1 µM and a final DMSO concentration was 1 %. To achieve this, compounds were diluted in DMSO from 10 mM stocks to 100 µM (100 x final assay concentration) then diluted 1:100 in running buffer which contained no DMSO to establish a final assay concentration of compound of 1 µM and a final DMSO concentration of 1 % [DMSO].
(§12) Compounds and DMSO were mixed by plate shaking at 1000 rpm for 60 seconds using a Bioshake instrument.
(§13) A flow rate of 100 µl/min was used throughout the experiment.
(§14) Data was evaluated using the RAPID kinetic analysis tool in the GCI WAVE_control software with data fitted using a standard 1:1 kinetic BioModel.

Sortilin [2] = target: T3, Sortilin (Mus musculus, UniProt Q6PHU5); assay: Creoptix (GCI) binding kinetics, mouse Sortilin; conditions: Species Mouse, screened at 1 µM, 25 degrees Celsius
T3 construct: purchased Bio-Techne Ltd 2934-ST-050
T3 sequence (Q6PHU5 76-753 limits assumed): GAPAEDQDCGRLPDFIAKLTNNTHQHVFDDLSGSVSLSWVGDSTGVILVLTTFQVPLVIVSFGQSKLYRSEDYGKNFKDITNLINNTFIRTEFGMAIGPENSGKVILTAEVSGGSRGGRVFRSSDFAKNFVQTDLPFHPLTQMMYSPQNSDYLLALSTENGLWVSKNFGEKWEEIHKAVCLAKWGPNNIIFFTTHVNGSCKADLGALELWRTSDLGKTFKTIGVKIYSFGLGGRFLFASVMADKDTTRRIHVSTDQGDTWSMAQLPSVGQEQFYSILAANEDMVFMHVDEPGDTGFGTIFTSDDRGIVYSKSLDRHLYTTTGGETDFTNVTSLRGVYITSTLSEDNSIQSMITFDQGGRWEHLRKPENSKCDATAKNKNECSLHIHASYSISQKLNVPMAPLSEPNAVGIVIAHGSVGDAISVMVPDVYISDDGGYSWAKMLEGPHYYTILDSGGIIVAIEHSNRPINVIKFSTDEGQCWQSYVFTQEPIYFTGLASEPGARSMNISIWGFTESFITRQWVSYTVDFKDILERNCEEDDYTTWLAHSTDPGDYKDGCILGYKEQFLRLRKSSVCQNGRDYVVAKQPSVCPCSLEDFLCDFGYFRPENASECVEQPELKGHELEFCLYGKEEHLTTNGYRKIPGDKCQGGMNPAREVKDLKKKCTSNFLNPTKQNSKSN
Procedure: as §1, §2, §3, §4, §5, §6, §7, §8, §9, §10, §11, §12, §13, §14

IC50 (h-Sortilin) [nM]	Kd (Sortilin [1]; Form of Compound Free acid) [nM]	Kd (Sortilin [2]; Form of Compound Free acid) [nM]	Kd (Sortilin [2]; Form of Compound Mesylate salt) [nM]	Molecule	Kd (Sortilin [1]; Form of Compound Mesylate salt) [nM]	Kd (Sortilin [1]; Form of Compound HCl salt) [nM]
640	200	241	–	CN1CCc2cc(CN[C@@H](CCC(C)(C)C)C(=O)O)ccc2C1 [Example 10, (S)-5,5-dimethyl-2-(((2-methyl-1,2,3,4-tetrahydroisoquinolin-6-yl)methyl)amino)hexanoic acid]	–	–
570	255	299	–	CC(C)(C)CC[C@H](NCc1ccc2c(c1)CCCN2)C(=O)O [Example 16, (2S)-5,5-dimethyl-2-{[(1,2,3,4-tetrahydroquinolin-6-yl)methyl]amino}hexanoic acid]	–	–
500	1420	2280	–	CC(C)(C)CC[C@H](NCc1ccc2c(c1)CNCC2)C(=O)O [Example 18, (2S)-5,5-dimethyl-2-{[(1,2,3,4-tetrahydroisoquinolin-7-yl)methyl]amino}hexanoic acid]	–	–
350	5070	7600	–	CN1CCOc2ccc(CN[C@@H](CCC(C)(C)C)C(=O)O)cc21 [Example 30, (2S)-5,5-dimethyl-2-{[(4-methyl-3,4-dihydro-2H-1,4-benzoxazin-6-yl)methyl]amino}hexanoic acid]	–	–
280	181	–	–	C[C@@H](N[C@@H](CCC(C)(C)C)C(=O)O)c1ccc2c(c1)OCCO2 [Example 51]	–	–
380	105	–	–	C[C@@H](N[C@@H](CCC(C)(C)C)C(=O)O)c1ccc2c(c1)OCO2 [Example 54]	–	–
310	696	–	–	CC(C)(C)CC[C@H](N[C@H](c1ccc2c(c1)OCCC2)C(F)F)C(=O)O [Example 56]	–	–
310	67	70.3	–	C[C@@H](N[C@@H](CCC(C)(C)C)C(=O)O)c1ccc2c(c1)NCCC2 [Example 58]	–	–
320	–	–	204	C[C@H](N[C@@H](CCC(C)(C)C)C(=O)O)c1ccc2c(c1)CCOC2 [Example 59]	218	–
350	144	–	–	C[C@H](N[C@@H](CCC(C)(C)C)C(=O)O)c1ccc2c(c1)OCCO2 [Example 61]	–	–
860	163	–	–	CC(C)(C)CC[C@H](NCc1ccc2c(c1)OCO2)C(=O)O [Example 68]	–	–
530	133	116	–	C[C@H](N[C@@H](CCC(C)(C)C)C(=O)O)c1ccc2c(c1)OCO2 [Example 70]	–	–
590	193	–	–	CC(C)(C)CC[C@H](N[C@H](c1ccc2c(c1)CCCC2)C(F)F)C(=O)O [Example 71]	–	–
1080	613	–	–	CC(C)(C)CC[C@H](NCc1cccc2c1CCCO2)C(=O)O [Example 72]	–	–
230	58.3	–	–	CC(C)(C)CC[C@H](NCc1ccnc(Oc2ccccc2)c1)C(=O)O [Example 76]	–	–

Molecule	IC50 (h-Sortilin) [nM]	Kd (Sortilin [1]; Form of Compound Free acid) [nM]	Kd (Sortilin [2]; Form of Compound Free acid) [nM]	Kd (Sortilin [2]; Form of Compound Mesylate salt) [nM]	Kd (Sortilin [1]; Form of Compound Mesylate salt) [nM]	Kd (Sortilin [1]; Form of Compound HCl salt) [nM]
CN1CCOc2cc(CN[C@@H](CCC(C)(C)C)C(=O)O)ccc21 [Example 19, (S)-5,5-dimethyl-2-(((4-methyl-3,4-dihydro-2H-benzo[b][1,4]oxazin-7-yl)methyl)amino)hexanoic acid]	660	3720	3180	–	–	–
(2S)-5,5-dimethyl-2-{[(5,6,7,8-tetrahydronaphthalen-2-yl)methyl]amino}hexanoic acid [Example 4]	120	40.9	–	–	42.5	51.7
